{
  "source": "patent EP2520297A1",
  "about": "“Rubreserine and its derivates with antiparasitic activity” (Commissariat à l'Énergie Atomique et aux Énergies …, priority 2011, dated 2012)",
  "key": {"[1]": {"biological_target": "ADCS (Escherichia coli, UniProt P05041)", "sequence (P05041 whole entry)": "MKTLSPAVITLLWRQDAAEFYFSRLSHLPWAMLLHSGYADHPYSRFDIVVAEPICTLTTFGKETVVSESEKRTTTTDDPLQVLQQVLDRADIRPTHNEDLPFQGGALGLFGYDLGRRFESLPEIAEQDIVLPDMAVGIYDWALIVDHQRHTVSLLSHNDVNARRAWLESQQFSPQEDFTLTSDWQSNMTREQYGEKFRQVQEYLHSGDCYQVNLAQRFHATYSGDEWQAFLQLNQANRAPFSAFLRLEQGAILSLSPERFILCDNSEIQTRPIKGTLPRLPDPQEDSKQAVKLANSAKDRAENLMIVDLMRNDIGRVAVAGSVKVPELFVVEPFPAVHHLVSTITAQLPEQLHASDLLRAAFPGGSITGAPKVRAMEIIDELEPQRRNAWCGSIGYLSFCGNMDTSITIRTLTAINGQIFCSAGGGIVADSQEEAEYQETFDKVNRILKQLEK", "settings": "purified enzyme; M. C. Kozlowski et al., J. Am. Chem. Soc. 117 (1995); cited from earlier work"}, "[2]": {"system": "Toxoplasma gondii", "settings": "read-out: IC50 generally reported in the literature; P. Meneceur, Antimicrob. Agents Chemother. 52 (2008); cited from earlier work"}, "[3]": {"system": "Toxoplasma gondii tachyzoites (RH-YFP2 strain)", "assay": "Toxoplasma gondii invasion assay in human fibroblasts", "type": "cell-based", "settings": "for IC50: Toxoplasma gondii, Fibroblast, calculated from the curves of Figures 3A and 3B (invasion and intracellular replication)", "method": "(§1) Toxoplasma gondii tachyzoites (RH-YFP2 strain) were propagated in human foreskin fibroblasts (HFFs). Human cells were grown in DMEM supplemented with 100 U/mL penicillin, […] streptomycin, 2 mM glutamine, and 10% FBS (Gibco). To obtain extracellular parasites, host cells were forced through a 26.5 gauge needle, and then the released parasites were purified by filtration through a 3 µm polycarbonate membrane before use.\nFor the invasion assay, RH-YFP2 parasites were incubated for 5 hours with the different drugs. Then 10^6 parasites/well were centrifuged for 30 seconds at 1300 rpm on HFF monolayers to synchronize invasion and wells were incubated for 15 minutes in a water bath at 37°C. Wells were washed three times with cold PBS to eliminate extracellular parasites and cells were fixed in 2.5% formaldehyde/PBS for 30 minutes and stored in PBS at 4°C until staining. To distinguish intracellular from extracellular parasites, cells were incubated with the primary antibody mAb Tg05-54 to detect the major Toxoplasma surface protein SAG1 (TgSAG1), then with Texas Red-conjugated goat anti-mouse secondary antibody (Molecular Probes). […] Nuclei were stained with Hoechst 33258 (Molecular Probes). To determine the number of intracellular parasites, 12 randomly selected fields were counted per well and per experiment with a Zeiss Axioplan 2 microscope equipped for epifluorescence and phase-contrast. Invasion was expressed as % of the number of intracellular parasites recorded in non-treated cells."}, "[4]": {"biological_target": "T1, recombinant Arabidopsis thaliana GAT-ADCS (Arabidopsis thaliana, UniProt Q8LPN3)", "T1 construct": "made in house", "T1 sequence (Q8LPN3 46-919)": "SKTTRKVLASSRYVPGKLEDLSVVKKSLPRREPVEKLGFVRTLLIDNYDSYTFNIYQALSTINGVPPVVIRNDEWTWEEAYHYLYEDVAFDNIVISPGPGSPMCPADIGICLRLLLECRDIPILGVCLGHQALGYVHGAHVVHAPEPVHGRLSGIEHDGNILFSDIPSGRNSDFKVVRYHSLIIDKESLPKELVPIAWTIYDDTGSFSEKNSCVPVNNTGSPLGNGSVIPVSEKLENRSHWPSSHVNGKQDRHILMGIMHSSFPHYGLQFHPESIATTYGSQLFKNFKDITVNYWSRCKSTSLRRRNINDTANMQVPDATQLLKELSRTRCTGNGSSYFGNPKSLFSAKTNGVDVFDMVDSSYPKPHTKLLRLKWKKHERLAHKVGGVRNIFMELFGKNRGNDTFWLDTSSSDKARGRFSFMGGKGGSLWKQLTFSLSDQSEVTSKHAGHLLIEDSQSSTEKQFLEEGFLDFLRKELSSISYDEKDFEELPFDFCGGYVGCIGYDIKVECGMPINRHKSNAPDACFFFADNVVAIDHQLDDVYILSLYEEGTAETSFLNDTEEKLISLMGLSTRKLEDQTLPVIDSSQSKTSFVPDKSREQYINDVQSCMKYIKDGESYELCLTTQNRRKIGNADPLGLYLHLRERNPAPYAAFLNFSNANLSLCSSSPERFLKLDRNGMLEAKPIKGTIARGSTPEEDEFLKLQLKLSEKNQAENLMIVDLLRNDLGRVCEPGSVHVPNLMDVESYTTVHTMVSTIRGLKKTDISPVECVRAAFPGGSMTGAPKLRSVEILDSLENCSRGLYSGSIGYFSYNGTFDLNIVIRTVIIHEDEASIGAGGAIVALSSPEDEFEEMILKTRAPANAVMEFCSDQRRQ", "assay": "Determination of GAT-ADCS activities (glutamate or pABA production, fluorescence)", "type": "biochemical", "method": "Both proteins were expressed and purified as described in the publication of D. Camara et al., Archives of Biochemistry and Biophysics 505 (2011) 83-90.\nGAT-ADCS activity can be determined by measuring the production of either glutamate or pABA. Standard assays contained 100 mM Tris/HCl (pH 8.0), 5 mM MgCl2, 5% V/V glycerol, 0 to 0.5 mM L-glutamine, 0.1 mM chorismate, 9 yg ml^-1 (90 nM) of the recombinant Arabidopsis thaliana GAT-ADCS and either 1 mM NAD and an excess of glutamate deshydrogenase (GDH) for glutamate determination, or an excess of Escherichia coli ADCL (20 µg ml^-1, 600 nM) for pABA determination. Reactions (final volume 80 µl) were run in the wells of a 96 well microplate (Greiner) and changes in fluorescence were continuously monitored with a microplate scanning spectrophotometer Safir 2 (Tecan). The glutamate production was followed by the fluorescence emission of NADH at 450 nm (excitation 340 nm). The pABA production was directly followed by the increase of the fluorescence emission at 340 nm (excitation 290 nm).\nThe equipment involved an automated screening station (Tecan Genesis 2000, Lyon, France), including a microplate reader. The platform is controlled by software for driving of serial devices and assays scheduling (Tecan Gemini 4.2 and FACTS 4.82 software). The library of compounds was purchased from The Prestwick Chemical Library®. This library contains 1200 molecules, 100% being marketed drugs, supplied at a 5 mM concentration in DMSO. The final concentration used in the enzymatic assay was 100 µM, and it was verified in separate control experiments that 2% DMSO had no effect on the activity. The enzymatic test used to determine GAT-ADCS activity in primary and secondary screenings was based on glutamate determination, as described above. After optimization of the assay, the Z' factor was comprised between 0.68 and 0.84."}, "[5]": {"system": "Arabidopsis thaliana (ecotype Columbia) seedlings", "assay": "Arabidopsis thaliana seedling growth on agar plates", "type": "in vivo", "method": "Arabidopsis thaliana (ecotype Columbia) seedlings were grown on plates containing Murashige and Skoog medium, […], plus the various molecules to be tested. Seeds were first sterilized by soaking for 15 minutes in a solution containing 0,095% Tween® 20 and 0,57% sodium hypochlorite before to be laid on the agar medium. The plates were conserved in the dark at 4°C for 48 hours, and then transferred in a green house (20°C, 80% humidity, 150 µE.m^-2.s^-1, 12 hours light period). The number of seedlings at the two leaf stage (rosette stage) was counted after 2 weeks."}, "[6]": {"system": "Toxoplasma gondii tachyzoites (RH-YFP2 strain)", "assay": "Toxoplasma gondii intracellular proliferation assay", "type": "cell-based", "method": "as §1\nFor the proliferation assay, 10^5 parasites/well were centrifuged on HFF monolayers for 30 seconds at 1300 rpm and incubated for 15 minutes in a water bath at 37°C for invasion. Wells were then washed three times with PBS to eliminate extracellular parasites and drugs were added. After 24 hours at 37°C in a humidified atmosphere containing 5% CO2, cells were fixed as described above. The number of parasites from up to 200 individual vacuoles was counted for each drug concentration."}, "[7]": {"system": "3D7 strain of Plasmodium falciparum", "assay": "Plasmodium falciparum SYBR Green 1-based fluorescence growth assay", "type": "cell-based", "settings": "3D7, 96 h", "method": "The 3D7 strain of Plasmodium falciparum was maintained in O+ blood. A rubreserine 10 mM stock concentration was made up in 1 × PBS pH = 7.5. This stock solution was then diluted serially to obtain the growth curve. Growth inhibition was measured after 96 hours by using an in vitro SYBR Green 1-based fluorescence growth assay, as previously described (T. N. Bennett et al., Antimicrob. Agents Chemoter. (2004) 48 1807-1810; M. Smilkstein et al., Antimicrob. Agents Chemoter. (2004) […] 1803-1806)."}, "[8]": {"biological_target": "T2, ADCL (Escherichia coli, UniProt P28305)", "T2 construct": "made in house", "T2 sequence (P28305 whole entry)": "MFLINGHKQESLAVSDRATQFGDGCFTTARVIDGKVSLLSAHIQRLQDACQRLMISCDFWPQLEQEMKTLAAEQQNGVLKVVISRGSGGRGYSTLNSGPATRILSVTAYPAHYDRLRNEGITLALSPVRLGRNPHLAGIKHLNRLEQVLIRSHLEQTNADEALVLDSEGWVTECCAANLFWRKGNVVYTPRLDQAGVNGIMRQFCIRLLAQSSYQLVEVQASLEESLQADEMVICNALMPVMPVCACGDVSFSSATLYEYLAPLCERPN", "assay": "Control experiment on ADCL", "type": "biochemical", "settings": "control experiments"}, "[9]": {"system": "confluent human fibroblast cells", "assay": "Effect on confluent human fibroblast cells", "type": "cell-based", "settings": "concentrations up to 50 µM", "method": "Firstly, it was verified that rubreserine concentrations up to 50 µM had no effect on confluent human fibroblast cells. The effect of rubreserine on Toxoplasma gondii parasites was then studied in two situations: • i) in invasion of human fibroblasts, and • ii) in intracellular development of the parasites."}},
  "note": "Where two headings read alike, the source gives them in different places.",
  "data": [
    {"molecule": "C=C(OC1C(O)=C(C(=O)O)C=CC1N)C(=O)O", "note": "(stereo not shown) [2-hydroxy-4-amino-4-deoxy chorismate]", "values": [
      {"measurement": "Ki", "setting": "[1]", "value": 38, "unit": "µM"}
    ]},
    {"molecule": "Nc1ccc(S(=O)(=O)Nc2ncccn2)cc1", "note": "[sulfadiazine, reference compound]", "values": [
      {"measurement": "IC50", "setting": "[2]", "value": "> 30", "unit": "µM"},
      {"measurement": "IC50", "setting": "[3]", "value": "> 50", "unit": "µM"}
    ]},
    {"molecule": "CN1CCC2(C)c3cc(O)ccc3N(C)C12", "note": "(single isomer, unassigned) [eseroline, reference compound]", "values": [
      {"measurement": "effect on the enzyme activity", "setting": "[4]", "value": "no or little effect"}
    ]},
    {"molecule": "CN1CCC2(C)C3=CC(=O)C(=O)C=C3N(C)C12", "note": "(stereo not shown) [rubreserine]", "values": [
      {"measurement": "period of incubation required to obtain maximal inhibition", "setting": "[4]; GAT activity, 10 and 20 µM", "value": 20, "unit": "min"},
      {"measurement": "Ki", "setting": "[4]; bifunctional GAT-ADCS, summary statement, read-out: apparent inhibitory constant (Ki)", "value": "< 10", "unit": "µM"},
      {"measurement": "type of inhibition", "setting": "[4]; decreased Vm for pABA production, increased Km for glutamine", "value": "mixed-type inhibition"},
      {"measurement": "inhibitory effect after incubation with a reducing agent", "setting": "[4]; incubation with dithiothreitol (DTT)", "value": "suppressed the inhibitory effect"},
      {"measurement": "Ki", "setting": "[4]; pABA production, varying glutamine, 100 µM chorismate, 20 minutes incubation with rubreserine, estimated from the curves, read-out: Ki", "value": "~4", "unit": "µM"},
      {"measurement": "Ki", "setting": "[4]; pABA production, varying glutamine, 100 µM chorismate, 20 minutes incubation with rubreserine, estimated from the curves, read-out: αKi", "value": "~9", "unit": "µM"},
      {"measurement": "growth inhibition with 5-formyl tetrahydrofolate", "setting": "[5]; 200 µM 5-FTHF together with rubreserine, lower extent than pABA", "value": "able to revert the inhibitory effect"},
      {"measurement": "growth inhibition with pABA", "setting": "[5]; agar plates supplemented with 200 µM pABA together with rubreserine", "value": "suppressed or largely reduced"},
      {"measurement": "growth of seedlings", "setting": "[5]; agar plates, various concentrations (50 or 100 µM), two weeks", "value": "dose-dependent growth inhibition"},
      {"measurement": "number of intracellular parasites", "setting": "[3]; 20 µM, parasites incubated 5 hours with drug, 15 minutes contact with human cells", "value": "reduced two times"},
      {"measurement": "IC50", "setting": "[3]", "value": "~20", "unit": "µM"},
      {"measurement": "efficiency compared with sulfanilamide and sulfadiazine", "setting": "[3]; invasion of human fibroblasts or intracellular replication", "value": "more efficient"},
      {"measurement": "inhibition in the presence of pABA or 5-FTHF", "setting": "[6]; 20 µM rubreserine with 100 µM pABA or 100 µM 5-FTHF", "value": "significantly reversed the inhibition"},
      {"measurement": "number of parasites in the parasitophorous vacuoles", "setting": "[6]; 24 hours after invasion, 200 vacuoles counted", "value": "decreased"},
      {"measurement": "inhibition in combination with pyrimethamine", "setting": "[6]; rubreserine 20 µM with pyrimethamine 0.4 µM, compared to rubreserine alone", "value": "increased"},
      {"measurement": "IC50", "setting": "[7]", "value": "~1.2", "unit": "µM"},
      {"measurement": "effect on ADCL", "setting": "[8]", "value": "no effect"},
      {"measurement": "effect on confluent human fibroblast cells", "setting": "[9]", "value": "no effect"}
    ]}
  ]
}
